Reference: patent US8216580B2, “Sulfatases and methods of use thereof” (The Regents of the University of California, priority 2000, dated 2012)

Key:
[1] = tested on: Wnt signaling; assay: TCF-luciferase (TOPFlash/FOPFlash) Wnt reporter assay in pancreatic adenocarcinoma cell lines; format: cell-based, human; conditions: for Wnt activity: 16 hours with conditioned medium of HEK 293 clones
Description: Cells were plated in 24 well plates and transfected with either 0.3 μg TOPFlash or FOPFlash and 0.01 μg Renilla control plasmid (Promega) using Fugene (Roche) according to the manufacturer's procedure. After 48 hours cells were lysed and analyzed utilizing the Dual Luciferase Reporter Assay system (Promega). Luciferase activity was normalized to control Renilla activity.
To search for evidence that endogenous expressed sulfatases in pancreatic adenocarcinoma cell lines regulate Wnt signaling, the method of gene silencing was used. An antisense cDNA against both sulfatases was transiently transfected into four different cell lines. As a control, cells were transfected with a MMP-9 antisense cDNA. Wnt signaling was quantified by TCF-luciferase activity.
HSulf-1 DCC and HSulf-2 DCC mutants are as follows: 1) cysteines 87 and 88 of HSulf-1 (designated as HSulf-1 ΔCC or HSulf-1 DCC) were changed to alanines; and cysteines 88 and 89 of HSulf-2 (designated as HSulf-2 ΔCC or HSulf-2 DCC) were changed to alanines (see Example 9, above).
The effect of conditioned medium derived from the HEK 293 cell lines on Wnt signaling was determined. Pancreatic adenocarcinoma cells were incubated for 16 hours with conditioned medium derived from the described HEK 293 clones; and the TOP/FOPflash system was used to quantify Wnt signaling.
In order to compare proliferation of BxPC3 sil413 cells and mock transfected BxPC3 cells in vitro, GFP+ (HSulf-2 positive) and GFP− (HSulf-2 negative) cells were co-cultured; and the ratio of GFP+ to GFP− cells was followed over time. […] Additionally, using sorted BxPC3 si1413 cells we examined proliferation performing BrdU incorporation experiments (FIG. 21D).

[2] = Arylsulfatase activity assay with 4-MUS substrate; format: biochemical
Description: The 100-fold concentrated conditioned medium (CM) derived from each transfection of CHO cells as described above was dialyzed into 50 mM HEPES, pH 8.0. The His-tagged fusion proteins were bound to a Ni-NTA resin (QIAGEN) by rotation at 4° C. over night, then washed with 50 mM HEPES (pH 8.0), 3 times. 250 mM imidazole in 50 mM HEPES, pH 8.0 was used to elute the His-tagged fusion proteins from Ni-NTA. The resins with boud material or the eluates were mixed with 10 mM 4-methylumbelliferyl-sulfate (4-MUS; a substrate for sulfatases), and 10 mM lead acetate, in a total volume of 100 μl. The reaction mixtures were incubated at 37° C. for various periods of time. Reactions were terminated by the addition of 100 μl of 0.5 M Na2CO3/NaHCO3, pH 10.7 to 20 μl of the reaction mixture. The fluorescence of 4-methylumbelliferone was measured on a Multi-Well Plate Reader CytoFluorII (PerSeptive Biosystems). The fluorescence was determined at an excitation wavelength of 360 nm and emission wavelength of 460 nm. A substrate dose response curve was performed over the concentration range of 1 to 10 mM 4-MUS.
The synthetic fluorogenic compound 4-methylumbelliferyl sulfate (4-MUS) serves as a substrate for most sulfatases, both in the lysosomal and non-lysosomal classes. CHO cells were transfected with a cDNA for HSulf-1 or HSulf-2 or a vector control. Conditioned medium was collected and incubated with nickel resin (Ni-NTA) to bind the His-tagged recombinant proteins. The bead-bound material was assayed for activity on 4-MUS. For both enzymes, hydrolysis depended on time of reaction (FIG. 15A), concentration of substrate (FIG. 15B), and amount of CM (FIG. 15C). From the substrate dose-response curves of FIG. 15B and based on estimates of Sulf protein levels in CM, we approximated Vmax for the two Sulfs to be in the range of 1000-2000 nmol per min per mg of Sulf protein. Human glucosamine-6-sulfatase has a considerably lower Vmax against 4-MUS ([…]) whereas the Vmax of human N-acetylgalactosamine-4-sulfatase (arylsulfatase B) is much higher (48000).
HSulf-1, HSulf-2 or their mutated forms (HSulf-1 ΔCC and HSulf-2 ΔCC) was purified from the conditioned medium of transfected CHO cells by binding to Ni-NTA beads. A) The bead-bound material was tested for arylsulfatase activity as a function of time against 10 mM 4-MUS substrate at pH 8. The “no-enzyme” control was based on testing conditioned medium from vector-control transfected CHO cells. No activity was detected in the absence of added substrate (not shown). […] The activity of each Sulf was determined relative to that of beads exposed to an equivalent volume of vector-control conditioned medium. The activity of HG6S was determined (24 hr incubation) relative to that of the buffer. […]

[3] = tested on: pancreatic adenocarcinoma cell lines; assay: Transwell co-culture proliferation (cell counts) with HEK 293 feeder layer; format: cell-based, human; conditions: exogenous protein from 293 feeder layer
Description: Co-culture experiments were performed in transwell plates with 24-well inserts with 5 μm polycarbonate membrane pore size (Corning Incorporated). HEK 293 cells were plated in the wells as feeder layer and one day later 1-2×10^3 cells of the pancreatic adenocarcinoma cell lines were plated in the inserts. Cells were grown in DMEM supplemented with 10% fetal calf serum.
293 cells expressing either HSulf-2, HSulf-2-DCC, parental 293 or only medium alone were used as feeder layer; and pancreatic adenocarcinoma lines were grown on transwell filters. Subsequently, cell counts were followed over time.

| Substance | Wnt activity ([1]; CFPAC-1 cells) | Wnt activity ([1]; cell lines inhibited in proliferation) | inhibition of Wnt signaling (TCF-luciferase activity) ([1]; transient transfection, in three of the four examined pancreatic adenocarcinoma cell lines) | arylsulfatase activity of cysteine-to-alanine mutants ([2]; 4-MUS, pH 8, 2 hr, mutant protein levels in CM equivalent to wild-type) | proliferation (cell counts over time) ([3]; BxPC-3, HS766T and L3.6sl cells) | proliferation (cell counts over time) ([3]; CFPAC-1 cells) | sulfatase activity ([2]; His-tagged fusion proteins from CHO conditioned medium, 10 mM 4-MUS, 37° C.) |
| --- | --- | --- | --- | --- | --- | --- | --- |
| HSulf-2 ΔCC: catalytically inactive HSulf-2, cysteines 88 and 89 mutated to alanines (CC88, 89AA) | did no respond | significant decrease | about 50% | Lack of the activity | inhibited | did not show any response |  |
| HSulf-2: Human SULF2, an 870 amino acid sulfatase protein, SEQ ID NO:06; expressed with C-terminal Myc-His tag |  |  |  |  |  |  | Time-dependent sulfatase activity was detected |
